Assay results from patent US12679827B2, “Pyrimidine compounds and their pharmaceutical uses” (National Health Research Institutes, priority 2020, dated 2026).

Assays:
NCI-H69 = assay: Small-cell-lung cancer cell proliferation inhibition assay (PrestoBlue), NCI-H69; assay type: cell-based; settings: Homo sapiens, MYCN amplified SCLC cells, 72 hours
Protocol: (§1) Small cell lung cancer cells NCI-H82 (ATCC HTB-175, cMYC amplified), NCI-H446 (ATCC® HTB-171, cMYC amplified), and NCI-H69 (ATCC® HTB-119, MYCN amplified) were seeded at the density of 5000-10000 cells per well in 96-well plates. After 24 hours, the cancer cells were treated with each compound at various concentrations (0-10 μM) and then incubated for another 72 hours. IC50 values were computed based on duplicated 8-point titration.

NCI-H446 = assay: Small-cell-lung cancer cell proliferation inhibition assay (PrestoBlue), NCI-H446; assay type: cell-based; settings: Homo sapiens, cMYC amplified SCLC cells, 72 hours
Protocol: as §1

NCI-H82 = assay: Small-cell-lung cancer cell proliferation inhibition assay (PrestoBlue), NCI-H82; assay type: cell-based; settings: Homo sapiens, cMYC amplified SCLC cells, 72 hours
Protocol: as §1

[1] = molecular target: T1, human Aurora A (amino acids 123-401) (Homo sapiens, UniProt O14965); assay: Kinase-Glo Luminescent Kinase assay, in vitro inhibition of Aurora A kinase activity; assay type: biochemical; settings: recombinant GST-tagged Aurora A, 5.0 μM ATP, 37° C., 120 minutes
T1 construct: human Aurora A (amino acids 123-401) was expressed in Sf9 insect cells; GST; made in house; host or cells: Sf9 insect cells
T1 sequence (O14965 123-401): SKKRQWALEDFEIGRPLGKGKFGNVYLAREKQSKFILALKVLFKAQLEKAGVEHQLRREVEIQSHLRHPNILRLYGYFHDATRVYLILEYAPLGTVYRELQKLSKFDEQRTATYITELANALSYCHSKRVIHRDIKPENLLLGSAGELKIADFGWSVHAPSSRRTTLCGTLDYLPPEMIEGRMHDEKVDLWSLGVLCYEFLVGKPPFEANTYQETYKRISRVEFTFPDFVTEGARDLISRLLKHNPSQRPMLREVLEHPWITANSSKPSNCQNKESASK
Protocol: Recombinant glutathione S-transferase (GST)-tagged N-terminal truncated human Aurora A (amino acids 123-401) was expressed in Sf9 insect cells and then purified by glutathione affinity chromatography to afford recombinant Aurora A. Recombinant Aurora A (150 ng) was reacted with each test compound (100 nM) in 50 μL of 50 mM Tris-HCl pH 7.4, 10 mM NaCl, 10 mM MgCl2, 0.01% bovine serum albumin, 5.0 μM ATP, 1 mM dithiothreitol, 15 μM tetra(-LRRASLG) peptide at 37° C. for 120 minutes. Then, to the reaction was added 50 μL of Kinase-Glo Plus Reagent. The resulting mixture was incubated at 25° C. for 20 minutes. A 70 μL aliquot of the mixture was transferred to a black microliter plate. Luminescence was measured using a Wallac Vector 1420 multilabel counter (PerkinElmer, USA).

IC50 (NCI-H69)	IC50 (NCI-H446)	IC50 (NCI-H82)	IC50 [1]	SMILES
< 1000 nM	< 1000 nM	< 1000 nM		Cc1cc(Nc2cc(N3C[C@H](C)NC[C@H]3C)nc(N[C@H]3CCN(C(=O)c4ccc(Cl)cc4F)C3)n2)n[nH]1 [Compound 9]
< 1000 nM	< 1000 nM	< 1000 nM		Cc1cc(Nc2cc(N3C[C@@H](C)N[C@@H](C)C3)nc(N[C@H]3CCN(C(=O)c4ccc(Cl)cc4F)C3)n2)n[nH]1 [Compound 10]
< 1000 nM		< 1000 nM	< 100 nM	COCCN1CCN(c2cc(Nc3cc(C)[nH]n3)nc(N[C@H]3CCN(C(=O)c4ccc(Cl)cc4F)C3)n2)CC1 [Compound 13]
< 1000 nM	< 1000 nM	< 1000 nM	< 100 nM	Cc1cc(Nc2cc(N3CCN(CC(F)(F)F)CC3)nc(N[C@H]3CCN(C(=O)c4ccc(Cl)cc4F)C3)n2)n[nH]1 [Compound 14]
< 1000 nM	< 1000 nM	< 1000 nM	< 100 nM	Cc1cc(Nc2cc(N3C[C@@H](C)N(C)[C@@H](C)C3)nc(N[C@H]3CCN(C(=O)c4ccc(Cl)cc4F)C3)n2)n[nH]1 [Compound 15]
< 1000 nM	< 1000 nM	< 1000 nM	< 100 nM	Cc1cc(Nc2cc(N3CCN(C4COC4)CC3)nc(N[C@H]3CCN(C(=O)c4ccc(Cl)cc4F)C3)n2)n[nH]1 [Compound 16]
< 1000 nM	< 1000 nM	< 1000 nM	< 100 nM	Cc1cc(Nc2cc(N3CCC(N(C)C)CC3)nc(N[C@H]3CCN(C(=O)c4cccc(Cl)c4F)C3)n2)n[nH]1 [Compound 21]
	< 1000 nM	< 1000 nM	< 100 nM	CCN1CCN(c2cc(Nc3cc(C)[nH]n3)nc(N[C@H]3CCN(C(=O)c4cc(F)c(Cl)cc4F)C3)n2)CC1 [Compound 43]
	< 1000 nM	< 1000 nM	< 100 nM	CCN1CCN(c2cc(Nc3cc(C)[nH]n3)nc(N[C@H]3CCN(C(=O)c4ccc(F)cc4F)C3)n2)CC1 [Compound 44]
	< 1000 nM	< 1000 nM	< 100 nM	CCN1CCN(c2cc(Nc3cc(C)[nH]n3)nc(N[C@H]3CCN(C(=O)c4c(F)cc(Cl)cc4F)C3)n2)CC1 [Compound 47]
	< 1000 nM	< 1000 nM	< 100 nM	CCN1CCN(c2cc(Nc3cc(C)[nH]n3)nc(N[C@H]3CCN(C(=O)c4cccc(C(F)(F)F)c4F)C3)n2)CC1 [Compound 48]
	< 1000 nM	< 1000 nM	< 100 nM	CCN1CCN(c2cc(Nc3cc(C)[nH]n3)nc(N[C@H]3CCN(C(=O)c4ccc(Cl)c(C(F)(F)F)c4)C3)n2)CC1 [Compound 49]
	< 1000 nM	< 1000 nM	< 100 nM	CCN1CCN(c2cc(Nc3cc(C)[nH]n3)nc(N[C@H]3CCN(C(=O)c4nc(Cl)ccc4F)C3)n2)CC1 [Compound 50]
	< 1000 nM	< 1000 nM	< 100 nM	CCN1CCN(c2cc(Nc3cc(C)[nH]n3)nc(N[C@H]3CCN(C(=O)c4ccc(Cl)nc4Cl)C3)n2)CC1 [Compound 54]
	< 1000 nM	< 1000 nM	< 100 nM	CCN1CCN(c2cc(Nc3cc(C)[nH]n3)nc(N[C@H]3CCN(S(=O)(=O)c4ccc(Cl)cc4C)C3)n2)CC1 [Compound 62]
	< 1000 nM	< 1000 nM	< 100 nM	CCN1CCN(c2cc(Nc3cc(C)[nH]n3)nc(N[C@H]3CCN(S(=O)(=O)c4ccc(Cl)cc4Cl)C3)n2)CC1 [Compound 63]
	< 1000 nM	< 1000 nM	< 100 nM	CCN1CCN(c2cc(Nc3cc(C)[nH]n3)nc(N[C@H]3CCN(S(=O)(=O)c4cccc(Cl)c4F)C3)n2)CC1 [Compound 65]
< 1000 nM	< 1000 nM	< 1000 nM		CCC(=O)n1nc(Nc2cc(N3CCN(CC)CC3)nc(N[C@H]3CCN(C(=O)c4ccc(Cl)cc4F)C3)n2)cc1C [Compound 72]
< 1000 nM	< 1000 nM	< 1000 nM		CCN1CCN(c2cc(Nc3cc(C)nn3C(=O)C(C)(C)C)nc(N[C@H]3CCN(C(=O)c4ccc(Cl)cc4F)C3)n2)CC1 [Compound 73]
< 1000 nM	< 1000 nM	< 1000 nM		CCN1CCN(c2cc(Nc3cc(C)n(C(=O)C(C)(C)C)n3)nc(N[C@H]3CCN(C(=O)c4ccc(Cl)cc4F)C3)n2)CC1 [Compound 74]

IC50 (NCI-H69)	IC50 (NCI-H446)	IC50 (NCI-H82)	IC50 [1]	SMILES
< 1000 nM	< 1000 nM	< 1000 nM		CCN1CCN(c2cc(Nc3cc(C)n(COC(=O)C(C)(C)C)n3)nc(N[C@H]3CCN(C(=O)c4ccc(Cl)cc4F)C3)n2)CC1 [Compound 75]
< 1000 nM	< 1000 nM	< 1000 nM		CCN1CCN(c2cc(Nc3cc(C)nn3C(=O)OCC(C)C)nc(N[C@H]3CCN(C(=O)c4ccc(Cl)cc4F)C3)n2)CC1 [Compound 78]
< 1000 nM	< 1000 nM	< 1000 nM		CCN1CCN(c2cc(Nc3cc(C)n(C(=O)OCC(C)C)n3)nc(N[C@H]3CCN(C(=O)c4ccc(Cl)cc4F)C3)n2)CC1 [Compound 79]
< 1000 nM	< 1000 nM	< 1000 nM		CCN1CCN(c2cc(Nc3cc(C)nn3C(=O)OC(C)(C)C)nc(N[C@H]3CCN(C(=O)c4ccc(Cl)cc4F)C3)n2)CC1 [Compound 80]
< 1000 nM	< 1000 nM	< 1000 nM		CCN1CCN(c2cc(Nc3cc(C)n(C(=O)OC(C)(C)C)n3)nc(N[C@H]3CCN(C(=O)c4ccc(Cl)cc4F)C3)n2)CC1 [Compound 81]
< 1000 nM	< 1000 nM	< 1000 nM		CCN1CCN(c2cc(Nc3cc(C)nn3C(=O)OCCOC)nc(N[C@H]3CCN(C(=O)c4ccc(Cl)cc4F)C3)n2)CC1 [Compound 82]
< 1000 nM	< 1000 nM	< 1000 nM		CCN1CCN(c2cc(Nc3cc(C)n(C(=O)OCCOC)n3)nc(N[C@H]3CCN(C(=O)c4ccc(Cl)cc4F)C3)n2)CC1 [Compound 83]
	< 1000 nM	< 1000 nM	< 100 nM	CCN1CCN(c2cc(Nc3cc(C)[nH]n3)nc(NC3CCN(Cc4cccc(Cl)c4F)CC3)n2)CC1 [Compound 88]
	< 1000 nM	< 1000 nM	< 100 nM	Cc1cc(Nc2cc(N3CC(N(C)C)C3)nc(NC3CCN(C(=O)c4cccc(Cl)c4F)CC3)n2)n[nH]1 [Compound 89]
< 1000 nM	< 1000 nM	< 1000 nM	< 100 nM	Cc1cc(Nc2cc(N3CCN(C)CC3)nc(NC3CCN(C(=O)c4cccc(Cl)c4F)CC3)n2)n[nH]1 [Compound 90]
< 1000 nM	< 1000 nM	< 1000 nM	< 100 nM	Cc1cc(Nc2cc(N3CCC(N(C)C)CC3)nc(NC3CCN(C(=O)c4cccc(Cl)c4F)CC3)n2)n[nH]1 [Compound 92]
< 1000 nM	< 1000 nM	< 1000 nM	< 100 nM	CC(=O)N1CCN(c2cc(Nc3cc(C)[nH]n3)nc(NC3CCN(C(=O)c4cccc(Cl)c4F)CC3)n2)CC1 [Compound 93]
< 1000 nM	< 1000 nM	< 1000 nM	< 100 nM	Cc1cc(Nc2cc(N3CC[C@@H](N(C)C)C3)nc(NC3CCN(C(=O)c4cccc(Cl)c4F)CC3)n2)n[nH]1 [Compound 94]
	< 1000 nM	< 1000 nM	< 100 nM	Cc1cc(Nc2cc(N(C)CCN(C)C)nc(NC3CCN(C(=O)c4cccc(Cl)c4F)CC3)n2)n[nH]1 [Compound 95]
< 1000 nM	< 1000 nM	< 1000 nM	< 100 nM	Cc1cc(Nc2cc(N3CC[C@H](N(C)C)C3)nc(NC3CCN(C(=O)c4cccc(Cl)c4F)CC3)n2)n[nH]1 [Compound 96]
< 1000 nM	< 1000 nM		< 100 nM	COC1CN(c2cc(Nc3cc(C)[nH]n3)nc(NC3CCN(C(=O)c4cccc(Cl)c4F)CC3)n2)C1 [Compound 99]
< 1000 nM	< 1000 nM		< 100 nM	COCCN1CCN(c2cc(Nc3cc(C)[nH]n3)nc(NC3CCN(C(=O)c4cccc(Cl)c4F)CC3)n2)CC1 [Compound 101]
< 1000 nM		< 1000 nM	< 100 nM	COC[C@@H]1CCCN1c1cc(Nc2cc(C)[nH]n2)nc(NC2CCN(C(=O)c3cccc(Cl)c3F)CC2)n1 [Compound 104]
< 1000 nM	< 1000 nM	< 1000 nM		COC1CCN(c2cc(Nc3cc(C)[nH]n3)nc(NC3CCN(C(=O)c4cccc(Cl)c4F)CC3)n2)CC1 [Compound 105]
< 1000 nM	< 1000 nM	< 1000 nM		CCOC(=O)n1nc(C)cc1Nc1cc(N2CCN(CC)CC2)nc(NC2CCN(C(=O)c3cccc(Cl)c3F)CC2)n1 [Compound 127]
